Patent publication US10610522B2, “Methods for retreating irritable bowel syndrome (IBS)” (Salix Pharmaceuticals, Inc., priority 2014, dated 2020)
Like-named read-outs stand apart in the source and are kept apart here.

Legend:
[1] = system: C. difficile infection (CDI); assay: Double-blind non-inferiority trial rifaximin 400 mg TID vs vancomycin 125 mg QID, 10 days, C. difficile infection; type: in vivo, human
Description: Criteria for entry into the trial were: • Age >=18 years old; • Had acute diarrhea at screening defined as >=3 unformed stools in the last 24 hours and at least one sign of enteric infection (fever, nausea, lose of appetite, vomiting, severe abdominal pain/discomfort); and • a positive C. diff stool toxin assay Endpoint:
The primary efficacy endpoint of the study was defined as the proportion of subjects achieving clinical success. Specifically, clinical success was defined as the absence of severe abdominal pain at Test of Cure (TOC), absence of fever (<38° C.) at TOC, and <3 unformed stools for two consecutive days at TOC.
Clinical success was defined as the: Absence of severe abdominal pain at TOC, absence of fever (<38° C.) at TOC, and <3 unformed stools for two consecutive days at TOC. Test of cure defined as Day 14+/−1 day.
Recurrence was defined to be a diarrhea and a positive C. diff stool toxin assay that occurred after initial clinical success.
Global cure of diarrhea was defined as subjects who were cured of diarrhea at TOC without recurrence at follow up.
Subjects who completed the study without achieving clinical success were censored at Day 14

[2] = Rifaximin systemic exposure/pharmacokinetics in healthy subjects, IBS subjects and liver impaired subjects; type: in vivo, human; details: for AUC / Cmax / half-life / Tmax / AUC(0-inf): human, plasma; for Tmax: read-out: Tmax, Median (range); for AUC(0-inf): po, single 550 mg oral dose, read-out: Mean AUC0-∞
Description: Subjects with non-c-IBS had mean AUCtau values following a single dose and multiple TID doses of 9.69 ng·h/mL and 16.0 ng·h/mL, respectively, reflecting an accumulation ratio (Rc; multiple-dose AUCtau/single-dose AUCtau) of […]. In subjects with liver impairment, systemic exposure is higher than that observed in healthy subjects or subjects with non-constipation irritable bowel syndrome, but low nonetheless.
Pharmacokinetic parameters were measured after a single dose and multiple doses (14 days).

[3] = system: rat fetuses; assay: Developmental toxicity in pregnant rats; type: in vivo
[4] = Rifaximin N = 117, Vancomycin N = 115
[5] = Rifaximin vs Vancomycin, at TOC
[6] = Rifaximin vs Vancomycin, treatment period
[7] = adjusting for concomitant medication usage, Rifaximin N = 109, Vancomycin N = 112
[8] = adjusting for concomitant medication usage, Rifaximin N = 117, Vancomycin N = 115
[9] = adjusting for concomitant medication usage, Rifaximin vs Vancomycin
[10] = after initial clinical success, Rifaximin N = 67, Vancomycin N = 73
[11] = all subjects, Rifaximin N = 117, Vancomycin N = 115
[12] = at TOC, Rifaximin N = 108, Vancomycin N = 111
[13] = at TOC, Rifaximin N = 117, Vancomycin N = 115
[14] = cured at TOC without recurrence at follow up, Rifaximin N = 117, Vancomycin N = 115
[15] = subgroup Age <65, at TOC, Rifaximin N = 69, Vancomycin N = 62
[16] = subgroup Age >=65, at TOC, Rifaximin N = 39, Vancomycin N = 49
[17] = subgroup Female, at TOC, Rifaximin N = 68, Vancomycin N = 64
[18] = subgroup Male, at TOC, Rifaximin N = 40, Vancomycin N = 47

CO[C@H]1/C=C/O[C@@]2(C)Oc3c(C)c(O)c4c(O)c(c5c(nc6cc(C)ccn65)c4c3C2=O)NC(=O)/C(C)=C\C=C\[C@H](C)[C@H](O)[C@@H](C)[C@@H](O)[C@@H](C)[C@H](OC(C)=O)[C@@H]1C [Rifaximin, (2S,16Z,18E,20S,21S,22R,23R,24R,25S,26S,27S,28E)-5,6,21,23,25 Pentahydroxy-27-methoxy-2,4,11,16,20,22,24,26-octamethyl-2,7-(epoxypentadeca-(1,11,13)trienimino) benzofuro (4,5-e) pyrido(1,2-a) benzimidazole-1,15(2H)-dione,25-acetate]
Continuing Illness No: % of subjects [1, 4]: 77%
Continuing Illness No: number of subjects [1, 4]: 90
Continuing Illness Yes: % of subjects [1, 4]: 23%
Continuing Illness Yes: number of subjects [1, 4]: 27
Global Cure of Diarrhea No: % of subjects [1, 4]: 29%
Global Cure of Diarrhea No: number of subjects [1, 4]: 34
Recurrence Rate per Person-Year Exposure [1, 4]: 0.613
Continuing Illness: Treatment Difference ([1]; Rifaximin vs Vancomycin): −9.2%
Global Cure of Diarrhea: Treatment Difference ([1]; Rifaximin vs Vancomycin): −3.0%
Recurrence of CDI: Treatment Difference ([1]; Rifaximin vs Vancomycin, after initial clinical success): 4.7%
Clinical Success: Treatment Difference [1, 5]: −6.2%
Diarrhea: Treatment Difference [1, 5]: −1.5%
Fever: Treatment Difference [1, 5]: −7.5%
Severe Abdominal Pain/Discomfort: Treatment Difference [1, 5]: −11.5%
Adjusted mean number of unformed stools-ANOVA: Treatment Difference (95% CI) [1, 6]: 0.46 (−0.08, 1.00)
Overall treatment difference in number of unformed stools-Mixed Model: Treatment Difference (95% CI) [1, 6]: 0.32 (−0.08, 0.72)
Diarrhea No: % of subjects [1, 7]: 65%
Diarrhea No: number of subjects [1, 7]: 71
Diarrhea Yes: % of subjects [1, 7]: 35%
Diarrhea Yes: number of subjects [1, 7]: 38
Clinical Success No: % of subjects [1, 8]: 50%
Clinical Success No: number of subjects [1, 8]: 59
Clinical Success Yes: % of subjects [1, 8]: 50%
Clinical Success Yes: number of subjects [1, 8]: 58
Clinical Success: Treatment Difference [1, 9]: −10.4%
Diarrhea: Treatment Difference [1, 9]: −8.1%
No Recurrence of CDI: % of subjects [1, 10]: 91%
No Recurrence of CDI: number of subjects [1, 10]: 61
Recurrence of CDI: % of subjects [1, 10]: 9%
Recurrence of CDI: number of subjects [1, 10]: 6
Recurrence No: % of subjects [1, 11]: 95%
Recurrence No: number of subjects [1, 11]: 111
Recurrence Yes: % of subjects [1, 11]: 5%
Recurrence Yes: number of subjects [1, 11]: 6
Diarrhea No: % of subjects [1, 12]: 80%
Diarrhea No: number of subjects [1, 12]: 86
Diarrhea Yes: % of subjects [1, 12]: 20%
Diarrhea Yes: number of subjects [1, 12]: 22
Fever No: % of subjects [1, 12]: 91%
Fever No: number of subjects [1, 12]: 98
Fever Yes: % of subjects [1, 12]: 9%
Fever Yes: number of subjects [1, 12]: 10
Severe Abdominal Pain/Discomfort No: % of subjects [1, 12]: 74%
Severe Abdominal Pain/Discomfort No: number of subjects [1, 12]: 80
Severe Abdominal Pain/Discomfort Yes: % of subjects [1, 12]: 26%
Severe Abdominal Pain/Discomfort Yes: number of subjects [1, 12]: 28
Clinical Success No: % of subjects [1, 13]: 43%
Clinical Success No: number of subjects [1, 13]: 50
Clinical Success Yes: % of subjects [1, 13]: 57%
Clinical Success Yes: number of subjects [1, 13]: 67
Global Cure of Diarrhea Yes: % of subjects [1, 14]: 71%
Global Cure of Diarrhea Yes: number of subjects [1, 14]: 83
Adjusted mean number of unformed stools-ANOVA ([1]; during the treatment period, Rifaximin N = 117, Vancomycin N = 115): 2.36
Diarrhea: % of subjects [1, 15]: 23%
Diarrhea: number of subjects [1, 15]: 16
No Diarrhea: % of subjects [1, 15]: 77%
No Diarrhea: number of subjects [1, 15]: 53
Diarrhea: Treatment Difference ([1]; subgroup Age <65, at TOC, Rifaximin vs Vancomycin): −3.8%
Diarrhea: % of subjects [1, 16]: 15%
Diarrhea: number of subjects [1, 16]: 6
No Diarrhea: % of subjects [1, 16]: 85%
No Diarrhea: number of subjects [1, 16]: 33
Diarrhea: Treatment Difference ([1]; subgroup Age >=65, at TOC, Rifaximin vs Vancomycin): 3.0%
Diarrhea: % of subjects [1, 17]: 21%
Diarrhea: number of subjects [1, 17]: 14
No Diarrhea: % of subjects [1, 17]: 79%
No Diarrhea: number of subjects [1, 17]: 54
Diarrhea: Treatment Difference ([1]; subgroup Female, at TOC, Rifaximin vs Vancomycin): −3.4%
Diarrhea: % of subjects [1, 18]: 20%
Diarrhea: number of subjects [1, 18]: 8
No Diarrhea: % of subjects [1, 18]: 80%
No Diarrhea: number of subjects [1, 18]: 32
Diarrhea: Treatment Difference ([1]; subgroup Male, at TOC, Rifaximin vs Vancomycin): 1.3%
AUC ([2]; 550 mg, 550 mg BID repeat dosing, Child Pugh B, read-out: Mean steady-state AUCtau): 161 ng·h/mL
AUC ([2]; 550 mg, 550 mg BID repeat dosing, Child-Pugh A, read-out: Mean steady-state AUCtau): 118 ng·h/mL
AUC ([2]; 550 mg, 550 mg BID repeat dosing, Child-Pugh C, read-out: Mean steady-state AUCtau): 246 ng·h/mL
AUC ([2]; 550 mg, multiple-dose TID, healthy subjects, read-out: Mean AUCtau, steady-state): 9.3 ng·h/mL
AUC ([2]; 550 mg, subjects with non-c-IBS, multiple TID doses, read-out: Mean AUCtau): 16 ng·h/mL
AUC ([2]; 550 mg, subjects with non-c-IBS, single dose, read-out: Mean AUCtau): 9.69 ng·h/mL
AUC ([2]; multiple-dose BID, healthy subjects, read-out: Mean AUCtau, steady-state): 12.3 ng·h/mL
AUC ([2]; oral, 550 mg, 550 mg BID, Child-Pugh C, read-out: Mean steady-state AUCtau): 257 ng·h/mL
Cmax ([2]; oral, 550 mg, 550 mg BID, Child-Pugh C, read-out: Mean steady-state Cmax): 39.7 ng/mL
half-life ([2]; oral, 550 mg, Child-Pugh C subjects, read-out: Mean half-life (converted)): 6.35 h
AUC ([2]; oral, 550 mg, Healthy Subjects, 550 mg Multiple-Dose TID (Day 14), N = 14, read-out: AUCtau, mean (SD)): 9.3 ng·h/mL
Cmax ([2]; oral, 550 mg, Healthy Subjects, 550 mg Multiple-Dose TID (Day 14), N = 14, read-out: Cmax, mean (SD)): 2.39 ng/mL
half-life ([2]; oral, 550 mg, Healthy Subjects, 550 mg Multiple-Dose TID (Day 14), N = 14, read-out: Half-life, harmonic mean (pseudo SD) (converted)): 5.63 h
Tmax ([2]; oral, 550 mg, Healthy Subjects, 550 mg Multiple-Dose TID (Day 14), N = 14): 1 h
AUC ([2]; oral, 550 mg, Healthy Subjects, 550 mg Single-Dose (Day 1), N = 12, read-out: AUCtau, mean (SD)): 10.4 ng·h/mL
Cmax ([2]; oral, 550 mg, Healthy Subjects, 550 mg Single-Dose (Day 1), N = 12, read-out: Cmax, mean (SD)): 4.04 ng/mL
half-life ([2]; oral, 550 mg, Healthy Subjects, 550 mg Single-Dose (Day 1), N = 12, read-out: Half-life, harmonic mean (pseudo SD) (converted)): 1.83 h
Tmax ([2]; oral, 550 mg, Healthy Subjects, 550 mg Single-Dose (Day 1), N = 12): 0.75 h
AUC ([2]; oral, 550 mg, IBS-D Patients, 550 mg Multiple-Dose TID (Day 14), N = 24, read-out: AUCtau, mean (SD)): 16 ng·h/mL
Cmax ([2]; oral, 550 mg, IBS-D Patients, 550 mg Multiple-Dose TID (Day 14), N = 24, read-out: Cmax, mean (SD)): 4.22 ng/mL
half-life ([2]; oral, 550 mg, IBS-D Patients, 550 mg Multiple-Dose TID (Day 14), N = 24, read-out: Half-life, harmonic mean (pseudo SD) (converted)): 6.08 h
Tmax ([2]; oral, 550 mg, IBS-D Patients, 550 mg Multiple-Dose TID (Day 14), N = 24): 1 h
AUC ([2]; oral, 550 mg, IBS-D Patients, 550 mg Single-Dose (Day 1), N = 24, read-out: AUCtau, mean (SD)): 9.69 ng·h/mL
Cmax ([2]; oral, 550 mg, IBS-D Patients, 550 mg Single-Dose (Day 1), N = 24, read-out: Cmax, mean (SD)): 3.49 ng/mL
half-life ([2]; oral, 550 mg, IBS-D Patients, 550 mg Single-Dose (Day 1), N = 24, read-out: Half-life, harmonic mean (pseudo SD) (converted)): 3.14 h
Tmax ([2]; oral, 550 mg, IBS-D Patients, 550 mg Single-Dose (Day 1), N = 24): 0.775 h
Cmax ([2]; oral, 550 mg, single 550-mg dose, fasted healthy subjects, read-out: Cmax): 4.1 ng/mL
AUC(0-inf) ([2]; 550 mg, fasted healthy subjects): 11.1 ng·h/mL
AUC(0-inf) ([2]; 550 mg, fed healthy subjects): 22.5 ng·h/mL
Systemic absorption ([2]; regardless of food intake or presence of GI disease): < 0.4%
Fetal malformations ([3]; pregnant rats, dose levels that caused reduced body weight gain): eye malformations
Post-natal developmental effects in rat pups ([3]; pregnant/lactating rats dosed from gestation to Day 20 post-partum, highest dose): not observed
